Experimental data as given in ChEMBL document CHEMBL1201862, “PubChem BioAssay data set” (2004).
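Method: 48-hour compound exposure of cells in 96-well plates, five concentrations, linear interpolation of endpoints. GI50: concentration for 50% inhibition of growth.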 Active and inactive are the calls of the source. No stated cut-off is given here; in the data, active = GI50 up to about 1.1 µM and inactive = higher.

Columns and labels:
Assay in all cases: DTP human tumour cell line panel, 48 h
BT-549 = system: BT-549
MDA-N = system: MDA-N
SNB-78 = system: SNB-78
M19-MEL = system: M19-MEL
LXFL 529 = system: LXFL 529
DLD-1 = system: DLD-1
DMS-273 = system: DMS-273
XF498 = system: XF498

## CCC1C(c2cc(OC)c(OC)c(OC)c2)c2cc3c(cc2OC1N1CCCC1)OCO3 (configuration not stated)
BT-549
  GI50: 4.06 µM (inactive)
MDA-N
  GI50: 0.231 µM (active)

## CC(C)CCC1(CCN)C(=O)NC(=O)NC1=O
BT-549
  GI50: > 100 µM (inactive)
MDA-N
  GI50: > 100 µM (inactive)

## O=C(O)CCNCC(=O)O
BT-549
  GI50: > 100 µM (inactive)
MDA-N
  GI50: > 100 µM (inactive)

## CC1(C)OC2OC(/C=C/[N+](=O)[O-])C3OC(C)(C)OC3C2O1 (configuration not stated)
SNB-78
  GI50: 14.2 µM (inactive)
M19-MEL
  GI50: 14.2 µM (inactive)
LXFL 529
  GI50: 2.76 µM (inactive)
DLD-1
  GI50: 1.61 µM (inactive)
DMS-273
  GI50: 17.3 µM (inactive)

## CCOC(=O)C1=C(C)NC(=O)NC1c1coc2cc(C)cc(C)c2c1=O (configuration not stated)
BT-549
  GI50: 99.3 µM (inactive)

## O=[N+]([O-])c1ccc(/C(=N/c2ccccc2)SS/C(=N\c2ccccc2)c2ccc([N+](=O)[O-])o2)o1
BT-549
  GI50: 1.75 µM (inactive)
MDA-N
  GI50: 2.72 µM (inactive)

## CCN(CC)C(=O)CCn1cc(F)c(=O)[nH]c1=O
SNB-78
  GI50: > 100 µM (inactive)
M19-MEL
  GI50: > 100 µM (inactive)
LXFL 529
  GI50: > 100 µM (inactive)
XF498
  GI50: > 100 µM (inactive)
DMS-273
  GI50: > 100 µM (inactive)

## Cc1cc(C)c(S(=O)(=O)N2CCCN(S(=O)(=O)c3c(C)cc(C)cc3C)OCCCO2)c(C)c1
BT-549
  GI50: > 100 µM (inactive)
MDA-N
  GI50: > 100 µM (inactive)

## OC1(C(Sc2cc(C(F)(F)F)cc(C(F)(F)F)c2)Sc2cc(C(F)(F)F)cc(C(F)(F)F)c2)C=CCCC1 (configuration not stated)
BT-549
  GI50: 3.35 µM (inactive)
MDA-N
  GI50: 2.56 µM (inactive)

## COc1ccc(Nc2nc3c(N)cc(C(F)(F)F)cc3nc2-c2ccccc2)cc1OC
SNB-78
  GI50: 28.3 µM (inactive)
M19-MEL
  GI50: 22.5 µM (inactive)
LXFL 529
  GI50: 15.3 µM (inactive)
XF498
  GI50: 14.8 µM (inactive)
DLD-1
  GI50: 22.7 µM (inactive)
DMS-273
  GI50: 33.5 µM (inactive)

## O=C(/C=C/c1ccccc1)CCN1CCN(CCC(=O)/C=C/c2ccccc2)CC1
BT-549
  GI50: 15.1 µM (inactive)
MDA-N
  GI50: 2.19 µM (inactive)

## CC(C)(C)OC(=O)Cn1ncn(NC(=O)Cc2ccccc2)c1=S
BT-549
  GI50: > 10 µM (inactive)
MDA-N
  GI50: > 10 µM (inactive)

## COc1ccc(C(=O)O)c(Cc2ccc3ccccc3c2)c1
SNB-78
  GI50: > 100 µM (inactive)
M19-MEL
  GI50: > 100 µM (inactive)
LXFL 529
  GI50: > 100 µM (inactive)
XF498
  GI50: > 100 µM (inactive)
DLD-1
  GI50: > 100 µM (inactive)
DMS-273
  GI50: > 100 µM (inactive)

## OC(Cc1cnnc2ccccc12)C(Cl)(Cl)Cl (configuration not stated)
MDA-N
  GI50: > 10 µM (inactive)

## CC1(c2cccc3c2C2(O)C=CC4(CCC32)OCCO4)OCCO1 (configuration not stated)
SNB-78
  GI50: > 100 µM (inactive)
M19-MEL
  GI50: > 100 µM (inactive)
LXFL 529
  GI50: > 100 µM (inactive)
DLD-1
  GI50: > 100 µM (inactive)
DMS-273
  GI50: > 100 µM (inactive)

## CCN(CC)CCN(C)CC(C)(C)C(=O)/C=C/c1ccccc1
M19-MEL
  GI50: 11.6 µM (inactive)
LXFL 529
  GI50: 12.3 µM (inactive)
XF498
  GI50: 12.4 µM (inactive)
DLD-1
  GI50: 5.46 µM (inactive)
DMS-273
  GI50: 13 µM (inactive)

## O=C(Nc1ccc(Cl)cc1)Oc1ccc(C(=S)Nc2ccc(Br)cc2)cc1
BT-549
  GI50: 17.9 µM (inactive)
MDA-N
  GI50: 16.7 µM (inactive)

## Cc1cc(=O)[nH]c2cc(NC(=O)C(C)NC(=O)C(C)NC(=O)C(C)NC(=O)OC(C)(C)C)ccc12 (configuration not stated)
BT-549
  GI50: > 15 µM (inactive)
MDA-N
  GI50: > 15 µM (inactive)

## CCN1CCN(c2nc3ccccc3nc2C(=O)c2ccc(OC)cc2)CC1
MDA-N
  GI50: 32.1 µM (inactive)

## O=C(NC(CS)C(=O)O)c1c2ccccc2nc2ccccc12 (configuration not stated)
BT-549
  GI50: 12.8 µM (inactive)
MDA-N
  GI50: 14.5 µM (inactive)

## CCOC(=O)N1CCC2(CC1)C[C@](Sc1ccccc1)(C(C)=O)[C@H](C)O2
MDA-N
  GI50: 53.5 µM (inactive)

## CC(C)NC(=O)OCc1c(COC(=O)NC(C)C)c(-c2ccc[n+](COC(=O)CC(C)(C)C)c2)n2c1CCC2
BT-549
  GI50: > 100 µM (inactive)
MDA-N
  GI50: > 100 µM (inactive)

## O=c1c2cc(Br)ccc2nc(-c2ccccc2)n1NCC1(O)OCC(O)C(O)C1O (configuration not stated)
SNB-78
  GI50: > 100 µM (inactive)
M19-MEL
  GI50: > 100 µM (inactive)
LXFL 529
  GI50: 92 µM (inactive)
DMS-273
  GI50: > 100 µM (inactive)

## O=C1OC(OC/C(Br)=C(\Br)COC2OC(=O)C(Cl)=C2Cl)C(Cl)=C1Cl (configuration not stated)
BT-549
  GI50: 2.67 µM (inactive)
MDA-N
  GI50: 3.65 µM (inactive)

## Cn1cnc([N+](=O)[O-])c1Sc1nncc2[nH]cnc12
BT-549
  GI50: > 100 µM (inactive)
MDA-N
  GI50: > 100 µM (inactive)

## CC1(C)C(CC(=O)O)CCCC1CC(=O)O (configuration not stated)
BT-549
  GI50: > 100 µM (inactive)
MDA-N
  GI50: > 100 µM (inactive)

## Cc1ccc(S(=O)(=O)N/N=C/C(Br)=C(/Br)C(=O)O)cc1
BT-549
  GI50: 6.55 µM (inactive)
MDA-N
  GI50: 4.69 µM (inactive)

## CC(=O)O[C@H]1C(=O)[C@@]2(C)[C@H]([C@H](OC(=O)C3CCCCC3)[C@]3(O)C[C@H](OC(=O)[C@H](O)[C@@H](NC(=O)C4CCCCC4)C4CCCCC4)C(C)=C1C3(C)C)[C@]1(OC(C)=O)CO[C@@H]1C[C@@H]2O
BT-549
  GI50: 0.0556 µM (active)
MDA-N
  GI50: 0.0025 µM (active)

## N#CC(C(=N/NC(N)=S)/C(=N/NC(N)=S)C(C#N)c1ccc(Cl)cc1)c1ccc(Cl)cc1 (configuration not stated)
SNB-78
  GI50: 35.6 µM (inactive)
M19-MEL
  GI50: > 100 µM (inactive)
LXFL 529
  GI50: 49.7 µM (inactive)
XF498
  GI50: > 100 µM (inactive)
DLD-1
  GI50: 34.1 µM (inactive)
DMS-273
  GI50: > 100 µM (inactive)

## COc1ccc(C2NC(=O)Nc3c2c(=O)oc2c3ccc3ccccc32)cc1 (configuration not stated)
BT-549
  GI50: 41.6 µM (inactive)
MDA-N
  GI50: 59.2 µM (inactive)
